Test results published in US10501479B2, “Benzenesulfonyl-asymmetric ureas and medical uses thereof” (HELSINN HEALTHCARE SA, priority 2016, dated 2019).
Where two headings read alike, the source gives them in different places.

Columns and labels:
[1] = target: T1, GHSR-1a (HEK293/GHSR1a cell line) (Homo sapiens, UniProt Q92847); test: Ghrelin antagonist potency (IC50) with calcium FLIPR assay, ghrelin 10 nM; format: cell-based
T1 construct: expressed in transfected cells; host or cells: HEK293/GHSR1a cell line
Summary of the method: (§1)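 In this assay, compound alone assesses agonism, while compound co-added with ghrelin at 10 nM assesses antagonism. In both modes the calcium-dye signal is tracked for 2 min from t=20 sec.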

[2] = target: T2, recombinant human ghrelin receptor (HEK293/GRLN) (Homo sapiens, UniProt Q92847); test: Ghrelin inverse agonist potency (EC50) with IP-1 (IP-One HTRF) assay; format: cell-based; details: IP-1 assay
T2 construct: expressed in transfected cells
Summary of the method: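 IP-1 accumulation was measured by HTRF (IP1-d2/Tb-cryptate, 620/665 nm read after 1 hour at room temperature) following 1 hour of compound treatment at 37° C. Cells were HEK293 stably expressing human ghrelin receptor, plated a day earlier on Matrigel. Inverse agonist potency was reported as EC50.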

[3] = Metabolic stability in mouse liver microsomes; format: in vitro ADME
Procedure: (§2) Metabolic Stability Study
(§3) The metabolic stability of compounds in human, dog, rat and mouse liver microsomes was performed according the experimental conditions reported below:
(§4) • a) Prepare the following 5 stock solutions: • 1. Test compound stock solutions: dilute 10 mM solution of dextromethorphan (Dtr) in DMSO, 10 mM solution of diphenhydramine (DPA) in DMSO, 10 mM solution of omeprazole (Ome) in DMSO, 10 mM solution of verapamil (Ver) in DMSO, and 10 mM of an inverse agonist compound in DMSO to 0.25 mM solution each with acetonitrile/water (70/30). • 2. Buffer: 100 mM potassium phosphate Buffer (PBS) at pH 7.4 • 3. Liver microsomes (20 mg/ml): Thaw in 37° C. water bath quickly • 4. 2000 μL: of NADPH regenerating system (1.3 mM). Place this system on ice before use:
(§5) • 5. […] The test compound concentration in the wells, measured by LC-MS/MS, represents the concentration at time=0. • f) To determine the test compound concentration when t≠0, pre-incubate the NADPH regenerating system and the incubation plate containing the remaining 320 μL of incubation mixture (microsomes protein and test compound) for 5 minutes at 37° C. • g) Start the incubation reaction by adding 80 μL NADPH regenerating system to each well containing the remaining 320 μL incubation mixture. • h) After 10 min., 30 min., and 90 min. of incubation at 37° C., transfer 100 μL of the incubation mixture (microsomes protein, test compound, and NADPH) into the wells of a stop plate pre-filled with 300 μL of the cold quench solution. Shake well. • i) Centrifuge the stop plate at 5000×g for 10 minutes. Collect and dilute the supernatant 3 times with distilled water. Sample and analyze the test compound concentration for all the wells by LC-MS/MS. Animal PK Studies via i.v. (intravenous), p.o. (orally) and s.c. (subcutaneous) administrations

[4] = Metabolic stability in human liver microsomes; format: in vitro ADME
Procedure: as §2, §3, §4, §5

[5] = target: T1, GHSR-1a (HEK293/GHSR1a cell line); test: Ghrelin agonist potency (EC50) with calcium FLIPR assay; format: cell-based
Summary of the method: as §1

[6] = HEK293/GHSR1a, ghrelin 10 nM, read-out: Activity IC50 (ghrelin antagonist potency)
[7] = HEK293/GRLN, read-out: Activity EC50 (ghrelin inverse agonist potency)
[8] = HEK293/GHSR1a, read-out: Activity EC50/EMax: EC50 (ghrelin agonist potency)
[9] = ghrelin antagonist potency, read-out: Activity IC50
[10] = ghrelin inverse agonist potency, read-out: Activity EC50
[11] = ghrelin agonist potency, read-out: Activity EC50/EMax
[12] = ghrelin antagonist potency, read-out: IC50 (Activity)
[13] = inverse agonist potency, read-out: EC50 (Activity)

T2 sequence (Q92847 whole entry): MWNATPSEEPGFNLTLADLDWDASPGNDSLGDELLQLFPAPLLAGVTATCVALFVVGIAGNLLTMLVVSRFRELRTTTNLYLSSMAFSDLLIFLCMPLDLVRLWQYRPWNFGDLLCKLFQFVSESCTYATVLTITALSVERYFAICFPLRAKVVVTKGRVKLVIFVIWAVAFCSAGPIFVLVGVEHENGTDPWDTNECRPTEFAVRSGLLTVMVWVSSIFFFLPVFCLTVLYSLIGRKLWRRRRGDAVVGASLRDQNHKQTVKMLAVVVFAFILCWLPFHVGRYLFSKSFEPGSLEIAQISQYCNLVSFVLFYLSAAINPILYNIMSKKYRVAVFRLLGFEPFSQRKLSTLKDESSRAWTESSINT
T1 sequence (Q92847 whole entry): as above

Row | SMILES | IC50 [1, 6] [nM] | EC50 [2, 7] [nM] | Metabolic Stability Study M = mouse [3] [µL/min/mg] | Metabolic Stability Study H = human [4] [µL/min/mg] | EC50 [5, 8] [nM] | IC50 [1, 9] [nM] | EC50 [2, 10] [nM] | EC50 [5, 11] [nM] | IC50 [1, 12] [nM] | EC50 [2, 13] [nM]
1 | CC(NC(=O)Nc1ccc(S(=O)(=O)Cc2ccc3c(c2F)CNC3)cc1)c1c(F)cccc1F (stereo not shown) [H1410] | 32 | 13.2 | 358.6 | 73.3 | > 30000 |  |  |  |  | 
2 | CC(NC(=O)Nc1ccc(S(=O)(=O)Cc2ccc3c(c2)CNC3)cc1)c1cccc(Cl)c1 (stereo not shown) [H1260, 1-(1-(3-chlorophenyl)ethyl)-3-(4-((isoindolin-5-ylmethyl)sulfonyl)phenyl)urea] | 3.7 | 4.4 | 24.7 | 38.9 | > 30000 |  |  |  |  | 
3 | C[C@@H](NC(=O)Nc1ccc(S(=O)(=O)Cc2ccc3c(c2F)CN(C)C3)cc1)c1ccccc1 [H1363, (R)-1-(4-(((4-fluoro-2-methylisoindolin-5-yl)methyl)sulfonyl)phenyl)-3-(1-phenylethyl)urea] | 8.4 | 3.15 | 335.3 | 140.1 | > 30000 |  |  |  |  | 
4 | CC(NC(=O)Nc1ccc(S(=O)(=O)Cc2ccc3c(c2)CN(C)C3)cc1Cl)c1ccccc1 (stereo not shown) [H1456, 1-(2-chloro-4-(((2-methylisoindolin-5-yl)methyl)sulfonyl)phenyl)-3-(1-phenylethyl)urea] |  |  | 137.8 | 160.6 |  | 109 | 6.2 | > 30000 |  | 
5 | COc1cccc(C(C)NC(=O)Nc2ccc(S(=O)(=O)Cc3ccc4c(c3)CN(C)C4)cc2)c1 (stereo not shown) [H1326, 1-(1-(3-methoxyphenyl)ethyl)-3-(4-(((2-methylisoindolin-5-yl)methyl)sulfonyl)phenyl)urea] | 9.8 | 6.9 | 60.5 | 129.5 | > 30000 |  |  |  |  | 
6 | Cc1oc(=O)oc1COC(=O)N1Cc2ccc(CS(=O)(=O)c3ccc(NC(=O)NC(C)c4ccccc4)cc3)cc2C1 (stereo not shown) [H1256, (5-methyl-2-oxo-1,3-dioxol-4-yl)methyl 5-(((4-(3-(1-phenylethyl)ureido)phenyl)sulfonyl)methyl)isoindoline-2-carboxylate] | 90 | 124 | 272.6 | 268.4 | > 30000 |  |  |  |  | 
7 | COc1cc(S(=O)(=O)Cc2ccc3c(c2)CCNC3)ccc1NC(=O)NC(C)c1ccccc1 (stereo not shown) [H1386, 1-(2-methoxy-4-(((1,2,3,4-tetrahydroisoquinolin-6-yl)methyl)sulfonyl)phenyl)-3-(1-phenylethyl)urea] | 21.2 | 11.7 | 11 | < 10 | > 30000 |  |  |  |  | 
8 | C[C@H](NC(=O)Nc1ccc(S(=O)(=O)Cc2ccc3c(c2)CCN(C)CC3)cc1)c1ccccc1 [H1322, (S)-1-(4-(((3-methyl-2,3,4,5-tetrahydro-1H-benzo [d]azepin-7-yl)methyl)sulfonyl)phenyl)-3-(1-phenylethyl)urea] | 112 | 81.5 | 171.1 | 129 | > 30000 |  |  |  |  | 
9 | CC(c1cccc(Cl)c1Cl)N(O)C(=O)Nc1ccc(S(=O)(=O)Cc2ccc3c(c2)CNC3)cc1.O=C(O)C(F)(F)F (stereo not shown) [H1509, 1-(1-(2,3-dichlorophenyl)ethyl)-1-hydroxy-3-(4-((isoindolin-5-ylmethyl)sulfonyl)phenyl)urea] |  |  | 16.0 | 15.9 |  | 0.336 | 1 | > 30000 |  | 
10 | CC(NC(=O)Nc1c(F)cc(S(=O)(=O)Cc2ccc3c(c2)CNC3)cc1F)c1ccccc1.O=C(O)C(F)(F)F (stereo not shown) [H1404, 1-(2,6-difluoro-4-((isoindolin-5-ylmethyl)sulfonyl)phenyl)-3-(1-phenylethyl)urea] | 1620 |  | 19 | 10 | > 30000 |  |  |  |  | 
11 | C[C@@H](NC(=O)Nc1ccc(S(=O)(=O)Cc2ccc3c(c2)CN(C)C3)cc1)c1ccccc1 [H1300, (R)-1-(4-(((2-methylisoindolin-5-yl)methyl)sulfonyl)phenyl)-3-(1-phenylethyl)urea] |  |  | 42.1 | 124.3 | > 30000 |  |  |  |  | 
12 | COc1cc(S(=O)(=O)Cc2ccc3c(c2)CCNC3)ccc1NC(=O)N[C@H](C)c1cccc(Cl)c1Cl [H1481, (R)-1-(1-(2,3-dichlorophenyl)ethyl)-3-(2-methoxy-4-(((1,2,3,4-tetrahydroisoquinolin-6-yl)methyl)sulfonyl)phenyl)urea] |  |  | 13.2 | < 10 |  |  | 0.2 | > 30000 |  | 
13 | CN(C)C(C)(C)Cc1ccc(NS(=O)(=O)c2ccc(NC(=O)NCc3ccccc3)cc2)cc1 [H1009, 4-(3-benzylureido)-N-(4-(2-(dimethylamino)-2-methylpropyl)phenyl) benzenesulfonamide] |  |  | 33.8 | 13.2 |  |  |  |  | 252 | 32.8
14 | C[C@@H](NC(=O)Nc1ccc(S(=O)(=O)Cc2ccc3c(c2)CN(C)C3)cc1)c1ccccc1 [H1356, (R)-1-(4-(((2-methylisoindolin-5-yl)methyl)sulfonyl)phenyl)-3-(1-phenylethyl)urea] |  |  | 126 | 382.5 | > 30000 |  |  |  |  | 
15 | C[C@H](NC(=O)Nc1ccc(S(=O)(=O)Cc2ccc3c(c2)CNC3)cc1)c1cccc(Cl)c1Cl.Cl [H1056, (S)-1-(1-(2,3-dichlorophenyl)ethyl)-3-(4-((isoindolin-5-ylmethyl)sulfonyl)phenyl)urea] |  |  | 13.5 | 16.4 |  |  |  |  | 5.8 | 2.6
16 | C[C@H](NC(=O)Nc1ccc(S(=O)(=O)Nc2ccc(CCO)cc2)cc1)c1cccc(Cl)c1Cl [H1094, (S)-4-(3-(1-(2,3-dichlorophenyl)ethyl)ureido)-N-(4-(2-hydroxyethyl)phenyl) benzenesulfonamide] |  |  | 100.8 | 55.1 |  |  |  |  | 488 | 118
17 | CCN1Cc2ccc(CS(=O)(=O)c3ccc(NC(=O)NC(C)c4ccccc4)cc3)cc2C1 (stereo not shown) [H1221, 1-(4-(((2-ethylisoindolin-5-yl)methyl)sulfonyl)phenyl)-3-(1-phenylethyl)urea] |  |  | 107.7 | 111.2 |  |  |  |  | 8.1 | 38.7
18 | CN1Cc2ccc(CS(=O)(=O)c3ccc(NC(=O)NCc4ccccc4)cc3)cc2C1 [H1193, 1-benzyl-3-(4-(((2-methylisoindolin-5-yl)methyl)sulfonyl)phenyl)urea] |  |  | 43.7 | 49.8 |  |  |  |  | 324 | 64
